One data set relates to SW1088. The data set can be described thus: MTT test, cytotoxic activity on non-clonogenic cell lines. The data set is classed as cell-based. To be noted: Homo sapiens, 10^−5 M, mean value. A digest of the protocol: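 Human astrocytoma SW1088 cells seeded, grown 24 h at 37° C, 5% CO2, then exposed to compounds at 10^−5 to 10^−10 M versus solvent control. Viability by MTT reduction: 3 h MTT incubation, formazan dissolved in DMSO and read by spectrophotometry.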

Another data set deals with MCF7. The data set is described as above. To be noted: Homo sapiens, 10^−5 M, mean value. It counts as cell-based. A digest of the protocol:
(§1)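 Human cancer lines seeded at 20 000–50 000 cells/ml, allowed 24 h to attach, then exposed to compounds at 10^−5 to 10^−10 M versus solvent control.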

Another data set relates to U-373MG. The data set is described as above. It counts as cell-based. Conditions: Homo sapiens, U373 MG, 10^−5 M, mean value. The method, boiled down:
as §1

For the next data set, the system named is U-87MG. Described as above. The data set is classed as cell-based. Conditions: Homo sapiens, 10^−5 M, mean value. The method, boiled down: as §1
Data set [1] has as its system HCT-15. The description is as above. The data set is classed as cell-based. Conditions: Homo sapiens, mean value. A digest of the protocol: as §1
A further data set relates to A549. Described as above. The data set is classed as cell-based. To be noted: Homo sapiens, 10^−5 M, mean value. The method, boiled down: as §1
A further data set relates to A-427. Described as above. It counts as cell-based. Conditions: Homo sapiens, 10^−5 M, mean value. A digest of the protocol: as §1
Another data set has as its system T-47D. The description is as above. The data set is classed as cell-based. To be noted: Homo sapiens, T47D, 10^−5 M, mean value. The method, boiled down: as §1
Another data set relates to PC-3. The data set is described as above. It counts as cell-based. To be noted: Homo sapiens, 10^−5 M, mean value. A digest of the protocol: as §1
The test system of another data set is LoVo. Described as above. The data set is classed as cell-based. Conditions: Homo sapiens, 10^−5 M, mean value. A digest of the protocol:
as §1

The next data set concerns J82. The data set is described as above. Conditions: Homo sapiens, 10^−5 M, mean value. It counts as cell-based. A digest of the protocol:
(§2)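 Human bladder cancer lines were seeded at 20 000–50 000 cells/ml and, after 24 h, exposed to compounds at 10^−5 to 10^−10 M against a solvent control. Formazan was dissolved in DMSO and viability was read by spectrophotometric optical density.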

The test system of the next data set is T24. The description is as above. The data set is classed as cell-based. To be noted: Homo sapiens, T-24, 10^−5 M, mean value. A digest of the protocol:
as §2

Data set [2] relates to HCT-15. Put plainly: cells. Conditions: Homo sapiens, HCT-15, read-out: concentration that inhibits by 50% (IC50) the in vitro cell growth of the HCT-15 line.
Where [3] appears, read: 72 hours incubation, MTT, read-out: mean optical density, expressed as percentage relative to the mean optical density under the control condition (100%).

Each structure is given as a SMILES string. Read-outs that look alike come from different tables or passages of the source.

The melting point is the temperature of the solid-liquid transition. With `COc1ccc(-c2cn(CCCC#N)c3c(OC)ccc(OC)c3c2=O)cc1` [CRL8421, 4-[5,8-Dimethoxy-3-(4-methoxyphenyl)-4-oxo-1,4-dihydro-1-quinolinyl]butanenitrile], the melting point lay in the range of 126 to 127 °C. Moreover, the viability at 10 µM with SW1088 (72 hours of incubation, control condition = 100%, read-out: mean optical density as percentage of control, SW1088) was determined as 51%. Besides, in the data set with MCF7 (72 hours of incubation, control condition = 100%, read-out: mean optical density as percentage of control, MCF7), the viability at 10 µM turned out to be 49.5%. Also, the viability at 10 µM with U-373MG (72 hours of incubation, control condition = 100%, read-out: mean optical density as percentage of control, U-373MG) is 81.7%. In addition, in the data set on U-87MG (U-87 MG, 72 hours of incubation, control condition = 100%, read-out: mean optical density as percentage of control, U-87MG), the viability at 10 µM turned out to be 29.9%. The viability at 10 µM with HCT-15 [1] (10^−5 M, 72 hours of incubation, control condition = 100%, read-out: mean optical density as percentage of control, HCT-16) is 50%. Also, the viability at 10 µM in the data set on A549 (72 hours of incubation, control condition = 100%, read-out: mean optical density as percentage of control, A549) came out at 97.5%. In addition, the viability at 10 µM in the data set with A-427 (72 hours of incubation, control condition = 100%, read-out: mean optical density as percentage of control, A-427) was 33%. In addition, the viability at 10 µM with T-47D (72 hours of incubation, control condition = 100%, read-out: mean optical density as percentage of control, T-47D) turned out to be 83.5%. In addition, in the data set with PC-3 (72 hours of incubation, control condition = 100%, read-out: mean optical density as percentage of control, PC-3), the viability at 10 µM turned out to be 61.4%. The viability at 10 µM with LoVo (72 hours of incubation, control condition = 100%, read-out: mean optical density as percentage of control, LoVo) is 60.8%. In addition, the viability at 10 µM with J82 (72 hours of incubation, control condition = 100%, read-out: mean optical density as percentage of control, J82) came to 47.1%. Moreover, the viability at 10 µM with T24 (72 hours of incubation, control condition = 100%, read-out: mean optical density as percentage of control, T24) came out at 40.3%.

For the compound `COc1ccc(-c2cn(CCN(C)C)c3cc(OC)ccc3c2=O)cc1` [CRL8469, N-[3-(Dimethylamino)ethyl]-7-methoxy-3-(4-methoxyphenyl)-1,4-dihydro-4-quinolinone], the melting point lay within 142 to 143 °C. Besides, the viability at 10 µM with SW1088 (setting [3]) was determined as 105%. Further, the viability at 10 µM in the data set with MCF7 (setting [3]) was 97.6%. Also, the viability at 10 µM in the data set on U-373MG (U-373MG, 72 hours incubation, MTT, read-out: mean optical density, expressed as percentage relative to the mean optical density under the control condition (100%)) amounted to 102%. For the same compound, the viability at 10 µM in the data set on U-87MG (U-87MG, 72 hours incubation, MTT, read-out: mean optical density, expressed as percentage relative to the mean optical density under the control condition (100%)) was 108%. In addition, the viability at 10 µM with HCT-15 [1] (HCT-16, 10^−5 M, 72 hours incubation, MTT, read-out: mean optical density, expressed as percentage relative to the mean optical density under the control condition (100%)) was determined as 101%. Moreover, in the data set on A549 (setting [3]), the viability at 10 µM was 100%. In the data set on A-427 (setting [3]), the viability at 10 µM worked out at 102%. In the data set on T-47D (T-47D, 72 hours incubation, MTT, read-out: mean optical density, expressed as percentage relative to the mean optical density under the control condition (100%)), the viability at 10 µM amounted to 103%. Besides, in the data set on PC-3 (setting [3]), the viability at 10 µM came to 99.9%. Besides, in the data set with LoVo (setting [3]), the viability at 10 µM came to 95.9%. For the same compound, in the data set with J82 (setting [3]), the viability at 10 µM is 89.5%. The viability at 10 µM with T24 (T24, 72 hours incubation, MTT, read-out: mean optical density, expressed as percentage relative to the mean optical density under the control condition (100%)) is 98.1%.

Compound `COc1ccc(-c2c[nH]c3cc(OC)cc(O)c3c2=O)cc1` [CRL8492, 5-Hydroxy-7-methoxy-3-(4-methoxyphenyl)-1,4-dihydro-4-quinolinone] displayed a melting point of 236 to 237 °C.

For `COc1ccc(-c2cn(C)c3cc(OC)cc(OS(=O)(=O)C(F)(F)F)c3c2=O)cc1` [CRL8493, 7-Methoxy-3-(4-methoxyphenyl)-1-methyl-5-trifluoromethanesulfonate-1,4-dihydro-4-quinolinone], the melting point was in the range of 184 to 185 °C.

In turn, `C=Cc1cc(OC)cc2c1c(=O)c(-c1ccc(OC)cc1)cn2C` [CRL8494, 7-Methoxy-3-(4-methoxyphenyl)-1-methyl-5-vinyl-1,4-dihydro-4-quinolinone] showed a melting point of 130 to 131 °C.

The compound `C=CCOc1c(-c2ccc(OC)cc2)cnc2cc(OC)cc(OC)c12` [CRL8496, 4-(Allyloxy)-5,7-dimethoxy-3-(4-methoxyphenyl)-quinoline] yielded a melting point of 169 to 170 °C.

Regarding `COc1ccc(-c2cnc3cc(OC)cc(OC)c3c2OCCC2OCCO2)cc1` [CRL8500, 4-[2-(1,3-Dioxolan-2-yl)ethoxy]-5,7-dimethoxy-3-(4-methoxyphenyl)quinoline], the melting point is 141 to 142 °C.

Compound `COc1ccc(-c2cnc3c(OC)ccc(OC)c3c2OCCCC#N)cc1` [CRL8501, {[5,8-Dimethoxy-3-(4-methoxyphenyl)-4-quinolyl]oxy}butanenitrile] yielded a melting point of 117 to 118 °C.

`CCOC(=O)COc1c(-c2ccc(OC)cc2)cnc2cc(OC)cc(OC)c12` [CRL8502, Ethyl 2-{[5,7-dimethoxy-3-(4-methoxyphenyl)-4-quinolinyl]oxy}acetate] gave a melting point of 238 to 239 °C.

Consider `COc1ccc(-c2cn(C)c3c(OC)ccc(OS(=O)(=O)C(F)(F)F)c3c2=O)cc1` [CRL8511, 8-Methoxy-3-(4-methoxyphenyl)-1-methyl-5-trifluoro-methanesulfonate-1,4-dihydro-4-quinolinone], for which the melting point was in the range of 179 to 180 °C.

The compound `C=Cc1ccc(OC)c2c1c(=O)c(-c1ccc(OC)cc1)cn2C` [CRL8512, 8-Methoxy-3-(4-methoxyphenyl)-1-methyl-5-vinyl-1,4-dihydro-4-quinolinone] displayed a melting point of 104 to 105 °C.

`CC(=O)Oc1ccc(-c2cn(C)c3cc(OC(C)=O)cc(OC(C)=O)c3c2=O)cc1` [CRL8513, 5,7-Diacetoxy-3-[4-(acetoxy)phenyl]-1-methyl-1,4-dihydro-4-quinolmone]: the melting point lay in the range of 219 to 220 °C.

`COc1ccc(-c2cn(CCO)c3c(OC)ccc(OC)c3c2=O)cc1` [CRL8515, 1-(2-Hydroxyethyl)-5,8-dimethoxy-3-(4-methoxyphenyl)-1,4-dihydro-4-quinolinone] registered a melting point of 126 to 127 °C.

`COc1ccc(-c2cnc3c(OC)ccc(OC)c3c2OCCO)cc1` [CRL8516, 2-{[5,8-Dimethoxy-3-(4-methoxyphenyl)-4-quinolyl]oxy}-1-ethanol] came in with a melting point of 124 to 125 °C.

Consider `COc1ccc(-c2cn(CCOS(=O)(=O)c3ccc(C)cc3)c3c(OC)ccc(OC)c3c2=O)cc1` [CRL8517, 4-2-[5,8-Dimethoxy-3-(4-methoxyphenyl)-4-oxo-1,4-dihydro-1-quinolyl]ethyl p-Toluenesulfonate], for which the melting point was 85 to 86 °C.

`COc1ccc(-c2cn(CCC#N)c3c(OC)ccc(OC)c3c2=O)cc1` [CRL8518, 3-[5,8-Dimethoxy-3-(4-methoxyphenyl)-4-oxo-1,4-dihydro-1-quinolinyl]propanenitrile] had a melting point of 79 to 80 °C.

For `COc1ccc(-c2cnc3c(OC)ccc(OC)c3c2OCCCCC#N)cc1` [CRL8519, {[5,8-Dimethoxy-3-(4-methoxyphenyl)-4-quinolyl]oxy}pentanenitrile], the melting point is 126 to 127 °C.

As to `C=CCNc1cc(OC)cc2c1c(=O)c(-c1ccc(OC)cc1)cn2C` [CRL8520, 5-Allylamino-7-methoxy-3-(4-methoxyphenyl)-1-methyl-1,4-dihydro-4-quinolinone], the melting point lay within 154 to 155 °C.

In the case of `COc1ccc(CNc2cc(OC)cc3c2c(=O)c(-c2ccc(OC)cc2)cn3C)cc1` [CRL8521, 5-(4-Methoxybenzylamino)-7-methoxy-3-(4-methoxyphenyl)-1-methyl-1,4-dihydro-4-quinolinone], the melting point was 144 to 145 °C.

For `COc1ccc(-c2cn(CC#N)c3cc(OC)ccc3c2=O)cc1` [CRL8522, [7-Methoxy-3-(4-methoxyphenyl)-4-oxo-1,4-dihydro-1-quinolinyl]acetonitrile], the melting point lay in the range of 206 to 207 °C.

In turn, `CCN(CC)C(=O)CCn1cc(-c2ccc(OC)cc2)c(=O)c2ccc(OC)cc21` [CRL8525, N,N-Diethyl-3-[7-methoxy-3-(4-methoxyphenyl)-4-oxo-1,4-dihydro-1-quinolinyl]propanamide] showed a melting point of 158 to 159 °C.

Take `COc1cc([C@@H]2c3cc4c(cc3[C@@H](O[C@@H]3O[C@@H]5CO[C@@H](C)O[C@H]5[C@H](O)[C@H]3O)[C@H]3COC(=O)[C@H]23)OCO4)cc(OC)c1O` [etoposide]: the IC50 with HCT-15 [2] is 1000 nM.

The record behind these values is patent US6645983B1, “Pharmaceutical compositions comprising 4-quinolones for treating cancers” (Laboratoire L. Lafon, priority 1999, dated 2003).
